Values of other authors in patent publication US10610528B2, “Solid oral film dosage forms and methods for making same” (Intelgenx Corp., priority 2009, dated 2020).

CN1CC(=O)N2[C@H](c3ccc4c(c3)OCO4)c3[nH]c4ccccc4c3C[C@@H]2C1=O [Tadalafil]
Solubility in water: practically insoluble in water
